Assay results reported in ChEMBL document CHEMBL1201862, “PubChem BioAssay data set” (2004).
Values joined by “and” are separate entries in the source; they are usually repeats but may differ in a detail not shown here. Equal values may be shown once. Active and inactive are the calls of the source. Rule as the data show it, for most assays here: actives have a measured IC50 and inactives only a lower limit.

How the values were obtained:
[1] = biological target: T1, E3 ubiquitin-protein ligase XIAP (Homo sapiens, UniProt P98170); experiment: Counter Screen using XIAP-Bir3 for Chemical Antagonists of Bir1/2 domains of IAP-family anti-apoptotic proteins. [Related pubchem assays (depositor defined):AID1018, AID1449, AID1514, AID1638, AID1749, AID1750, AID488957, AID488963]
T1 sequence (P98170 whole entry): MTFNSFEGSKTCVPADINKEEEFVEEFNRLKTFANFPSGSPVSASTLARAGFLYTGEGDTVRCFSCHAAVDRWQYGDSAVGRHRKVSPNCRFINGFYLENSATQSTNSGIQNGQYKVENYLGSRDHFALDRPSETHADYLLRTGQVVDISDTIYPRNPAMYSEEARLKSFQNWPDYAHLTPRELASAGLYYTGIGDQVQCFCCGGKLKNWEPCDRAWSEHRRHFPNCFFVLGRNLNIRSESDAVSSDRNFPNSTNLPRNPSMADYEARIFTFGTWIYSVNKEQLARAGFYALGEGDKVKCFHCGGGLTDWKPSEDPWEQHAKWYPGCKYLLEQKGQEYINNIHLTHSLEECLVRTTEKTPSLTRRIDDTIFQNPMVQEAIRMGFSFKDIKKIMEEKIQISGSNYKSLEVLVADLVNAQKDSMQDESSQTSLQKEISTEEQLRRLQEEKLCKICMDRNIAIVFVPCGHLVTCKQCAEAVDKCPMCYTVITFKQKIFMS

[2] = biological target: T1, E3 ubiquitin-protein ligase XIAP; experiment: XIAP antagonists, biochemical, IAP family, fluorescence polarization (AID 1018); type: functional
[3] = biological target: Glyceraldehyde-3-phosphate dehydrogenase (Homo sapiens, UniProt P04406)
[4] = biological target: Alkaline phosphatase, placental type (Homo sapiens, UniProt P05187); experiment: PLAP enzyme inhibitors, confirmation, biochemical, luminescence (AID 1512); type: functional
[5] = biological target: T2, Alkaline phosphatase, tissue-nonspecific isozyme (Homo sapiens, UniProt P05186); experiment: human TNAP enzyme inhibitors, SAR follow-up, biochemical, luminescent, dose response (AID 1056)
T2 sequence (P05186 whole entry): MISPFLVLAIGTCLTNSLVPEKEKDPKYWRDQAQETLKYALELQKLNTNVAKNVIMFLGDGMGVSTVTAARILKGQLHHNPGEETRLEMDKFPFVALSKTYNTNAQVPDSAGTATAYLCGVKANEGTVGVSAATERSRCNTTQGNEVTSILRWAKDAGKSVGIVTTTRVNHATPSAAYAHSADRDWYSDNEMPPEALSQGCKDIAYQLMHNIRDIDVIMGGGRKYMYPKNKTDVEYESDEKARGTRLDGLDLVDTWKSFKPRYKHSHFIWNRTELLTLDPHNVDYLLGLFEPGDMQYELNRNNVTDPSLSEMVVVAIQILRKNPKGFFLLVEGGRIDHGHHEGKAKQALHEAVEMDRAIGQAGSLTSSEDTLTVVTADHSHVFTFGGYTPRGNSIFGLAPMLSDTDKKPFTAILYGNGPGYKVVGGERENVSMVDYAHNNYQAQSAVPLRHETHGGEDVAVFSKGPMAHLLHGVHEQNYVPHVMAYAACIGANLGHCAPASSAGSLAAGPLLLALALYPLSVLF

[6] = cytotoxicity in HEK-293T cells, dose response, cytotoxicity control for TCR NF-kB inhibitor project, luminescence, T-cell screen hits (AID 489026); type: functional, cell-based;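 also: cells exposed to compound about 14 hours before the viability readout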
[7] = biological target: T3, SUMO-activating enzyme (Homo sapiens, UniProt Q9UBT2); experiment: SUMOylation inhibitor hit validation, confirmation, SUMOylation inhibitor project, biochemical, AlphaScreen (AID 2018); type: functional
T3 sequence (Q9UBE0 whole entry): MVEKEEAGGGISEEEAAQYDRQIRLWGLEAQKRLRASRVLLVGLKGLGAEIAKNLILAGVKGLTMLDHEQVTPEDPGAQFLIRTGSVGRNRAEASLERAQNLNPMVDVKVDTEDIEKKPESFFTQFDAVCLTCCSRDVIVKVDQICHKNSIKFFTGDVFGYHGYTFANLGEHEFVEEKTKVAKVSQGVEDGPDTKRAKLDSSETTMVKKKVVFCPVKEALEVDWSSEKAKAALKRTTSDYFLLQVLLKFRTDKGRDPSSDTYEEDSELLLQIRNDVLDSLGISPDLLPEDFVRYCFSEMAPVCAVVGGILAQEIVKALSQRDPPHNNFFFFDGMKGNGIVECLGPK
T3 sequence (Q9UBT2 whole entry): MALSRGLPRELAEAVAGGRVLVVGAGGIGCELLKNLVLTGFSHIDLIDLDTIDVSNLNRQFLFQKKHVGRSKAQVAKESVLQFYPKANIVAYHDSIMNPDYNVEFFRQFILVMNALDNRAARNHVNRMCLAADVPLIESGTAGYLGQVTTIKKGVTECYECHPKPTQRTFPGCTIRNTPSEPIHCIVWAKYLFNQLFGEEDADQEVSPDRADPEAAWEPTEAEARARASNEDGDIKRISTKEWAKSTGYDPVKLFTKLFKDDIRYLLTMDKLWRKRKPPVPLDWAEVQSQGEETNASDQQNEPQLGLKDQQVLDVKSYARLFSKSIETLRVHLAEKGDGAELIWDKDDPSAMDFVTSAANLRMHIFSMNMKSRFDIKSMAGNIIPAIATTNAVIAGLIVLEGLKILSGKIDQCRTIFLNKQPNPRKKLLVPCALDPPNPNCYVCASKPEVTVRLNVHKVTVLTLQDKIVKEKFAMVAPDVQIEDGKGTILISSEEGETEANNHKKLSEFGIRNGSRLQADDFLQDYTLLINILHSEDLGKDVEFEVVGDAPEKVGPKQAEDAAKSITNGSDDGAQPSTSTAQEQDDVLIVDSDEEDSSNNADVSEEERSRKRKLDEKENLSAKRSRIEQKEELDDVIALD

[8] = biological target: T3, SUMO-activating enzyme; experiment: inhibitors of in vitro SUMOylation cascade, primary screen, biochemical, HTRF, uHTS (AID 2006); type: protein-complex assay
[9] = Luminescence Cell-Based Dose Retest to Confirm Inhibitors of Cancer Stem Cells. [Related pubchem assays (depositor defined):AID2717, AID2721]; type: functional; conditions: Homo sapiens
[10] = biological target: T4, Ubiquitin-conjugating enzyme E2 N (Homo sapiens, UniProt P61088); type: functional;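 also: Dose-response confirmation in a TR-FRET assay detecting UBC13-driven polyubiquitin chain formation, inhibition measured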
T4 sequence (P61088 whole entry): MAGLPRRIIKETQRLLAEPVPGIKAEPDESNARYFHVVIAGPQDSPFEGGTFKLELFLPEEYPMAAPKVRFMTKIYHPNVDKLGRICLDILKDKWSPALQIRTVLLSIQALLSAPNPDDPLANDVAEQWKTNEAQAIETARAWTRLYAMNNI

[11] = biological target: Integrin alpha-4 (Homo sapiens, UniProt P13612); experiment: VLA-4 integrin allosteric ligands, SAR follow-up, cell-based, LIBS antibody binding, flow cytometry (AID 488791); type: functional
Sequence of Integrin alpha-4 (P13612 whole entry): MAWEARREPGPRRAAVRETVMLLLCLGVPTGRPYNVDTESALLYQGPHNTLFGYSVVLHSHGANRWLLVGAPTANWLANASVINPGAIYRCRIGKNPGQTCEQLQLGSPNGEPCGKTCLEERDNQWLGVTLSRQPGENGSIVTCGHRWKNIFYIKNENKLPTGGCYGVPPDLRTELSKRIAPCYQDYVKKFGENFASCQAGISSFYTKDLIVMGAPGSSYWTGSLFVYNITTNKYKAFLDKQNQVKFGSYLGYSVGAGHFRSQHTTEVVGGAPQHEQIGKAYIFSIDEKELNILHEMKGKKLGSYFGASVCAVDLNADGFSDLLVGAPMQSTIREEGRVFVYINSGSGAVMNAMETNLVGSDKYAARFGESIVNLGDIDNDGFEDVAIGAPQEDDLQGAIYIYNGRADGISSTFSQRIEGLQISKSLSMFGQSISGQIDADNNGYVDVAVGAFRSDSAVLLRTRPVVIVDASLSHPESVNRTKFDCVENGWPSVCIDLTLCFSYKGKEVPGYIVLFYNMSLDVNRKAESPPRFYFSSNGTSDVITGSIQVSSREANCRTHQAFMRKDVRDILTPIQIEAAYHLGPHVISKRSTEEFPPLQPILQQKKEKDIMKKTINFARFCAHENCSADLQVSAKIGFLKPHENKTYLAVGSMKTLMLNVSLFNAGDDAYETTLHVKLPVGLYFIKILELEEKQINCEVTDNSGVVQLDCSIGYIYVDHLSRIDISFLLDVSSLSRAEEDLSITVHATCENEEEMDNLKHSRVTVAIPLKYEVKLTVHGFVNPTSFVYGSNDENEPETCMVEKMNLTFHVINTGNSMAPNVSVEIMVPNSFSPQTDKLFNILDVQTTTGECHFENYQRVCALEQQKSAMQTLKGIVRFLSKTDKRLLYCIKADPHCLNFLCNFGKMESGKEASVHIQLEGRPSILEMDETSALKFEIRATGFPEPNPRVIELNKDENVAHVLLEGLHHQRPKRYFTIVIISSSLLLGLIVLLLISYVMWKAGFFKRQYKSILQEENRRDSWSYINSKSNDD

[12] = biological target: Tyrosine-protein phosphatase non-receptor type 7 (Homo sapiens, UniProt P35236); experiment: HePTP (PTPN7) phosphatase inhibitor potency, SAR follow-up, biochemical, set 2 (AID 449736); type: functional
Sequence of Tyrosine-protein phosphatase non-receptor type 7 (P35236 whole entry): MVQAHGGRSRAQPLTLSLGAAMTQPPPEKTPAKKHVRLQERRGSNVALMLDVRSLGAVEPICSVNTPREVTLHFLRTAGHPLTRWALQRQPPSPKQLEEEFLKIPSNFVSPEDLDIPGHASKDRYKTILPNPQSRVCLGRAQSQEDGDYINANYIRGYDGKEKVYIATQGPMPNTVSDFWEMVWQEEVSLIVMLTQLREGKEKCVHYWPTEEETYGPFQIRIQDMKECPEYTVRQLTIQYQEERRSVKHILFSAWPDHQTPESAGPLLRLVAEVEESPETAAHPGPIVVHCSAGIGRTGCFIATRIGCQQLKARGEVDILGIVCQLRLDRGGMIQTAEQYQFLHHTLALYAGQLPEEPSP

[13] = biological target: Eukaryotic translation initiation factor 4H (Homo sapiens, UniProt Q15056); experiment: eIF4H inhibition in translation initiation, SAR follow-up (AID 435011); type: functional
[14] = biological target: Polyadenylate-binding protein 1 (Homo sapiens, UniProt P11940); experiment: PABP inhibition in translation initiation, SAR follow-up (AID 435018); type: functional
Sequence of Polyadenylate-binding protein 1 (P11940 whole entry): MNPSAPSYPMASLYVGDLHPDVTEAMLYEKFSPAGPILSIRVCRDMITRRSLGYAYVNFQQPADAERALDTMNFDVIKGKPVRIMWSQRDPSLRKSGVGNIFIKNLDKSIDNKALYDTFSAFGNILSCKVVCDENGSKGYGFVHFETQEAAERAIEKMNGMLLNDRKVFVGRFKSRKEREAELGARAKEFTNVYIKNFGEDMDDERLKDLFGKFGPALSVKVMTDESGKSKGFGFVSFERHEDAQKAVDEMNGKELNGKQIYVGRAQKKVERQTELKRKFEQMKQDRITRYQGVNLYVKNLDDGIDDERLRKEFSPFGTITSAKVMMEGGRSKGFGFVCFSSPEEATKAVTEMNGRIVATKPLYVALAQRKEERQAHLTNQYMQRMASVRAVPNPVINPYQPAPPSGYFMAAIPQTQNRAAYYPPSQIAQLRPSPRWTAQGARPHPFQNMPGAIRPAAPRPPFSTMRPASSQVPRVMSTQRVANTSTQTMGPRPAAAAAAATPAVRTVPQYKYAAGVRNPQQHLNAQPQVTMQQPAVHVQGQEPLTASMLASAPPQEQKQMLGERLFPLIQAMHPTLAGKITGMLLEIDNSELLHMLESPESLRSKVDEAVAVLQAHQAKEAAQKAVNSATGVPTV

[15] = biological target: Trypsin (Sus scrofa, UniProt P00761); experiment: porcine trypsin inhibitors, dose response, selectivity assay for Rce1 protease inhibitor project, biochemical, quenched peptide fluorescence, cherry-pick (AID 488789)
Sequence of Trypsin (P00761 whole entry): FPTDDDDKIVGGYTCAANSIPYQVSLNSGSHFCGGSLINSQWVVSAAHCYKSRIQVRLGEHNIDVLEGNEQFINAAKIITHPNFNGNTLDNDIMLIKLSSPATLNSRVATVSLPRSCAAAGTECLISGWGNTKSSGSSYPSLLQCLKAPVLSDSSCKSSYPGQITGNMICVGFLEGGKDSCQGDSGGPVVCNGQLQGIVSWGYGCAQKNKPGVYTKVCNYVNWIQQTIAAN

[16] = LGR2 antagonists, dose response, cell-based, HEK293, CRE-luciferase reporter, cherry pick, set 2 (AID 743343); type: functional;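 also: transfected cells were stimulated with diluted bursicon conditioned medium after compound addition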
[17] = MC4R antagonists, dose response, counter-screen for LGR2 antagonist project, cell-based, plate reader, cherry pick (AID 743444); type: functional;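 also: transfected HEK 293 cells stimulated with alpha-MSH peptide; potency of inhibitors of the alpha-MSH evoked signal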
[18] = test system: HEK293; experiment: NOD1 signaling inhibitors, primary screen, cell-based, luminescence, uHTS (AID 1578); type: functional; conditions: Homo sapiens
[19] = test system: HEK293; experiment: cells; type: functional, cell-based; conditions: Homo sapiens
[20] = test system: HEK293; experiment: cells; type: functional, cell-based; conditions: Homo sapiens; remark: listed apart in the source
[21] = biological target: Nucleotide-binding oligomerization domain-containing protein 2 (Homo sapiens, UniProt Q9HC29); experiment: NOD2 signaling inhibitors, cell-based, luminescence, uHTS, HEK293 (AID 1566); type: functional
[22] = test system: HEK293; experiment: NOD2 signaling inhibitors in MDP-stimulated cells, cell-based, uHTS, luminescence (AID 2001); type: functional; conditions: Homo sapiens
[23] = test system: HEK293; experiment: cells; type: functional, cell-based; conditions: Homo sapiens; remark: listed apart in the source
[24] = biological target: Tumor necrosis factor (Homo sapiens, UniProt P01375); experiment: TNFa-triggered NF-kB activation inhibitors, SAR follow-up, cell-based, revised (AID 2337); type: functional
Sequence of Tumor necrosis factor (P01375 whole entry, the tested form may be a part): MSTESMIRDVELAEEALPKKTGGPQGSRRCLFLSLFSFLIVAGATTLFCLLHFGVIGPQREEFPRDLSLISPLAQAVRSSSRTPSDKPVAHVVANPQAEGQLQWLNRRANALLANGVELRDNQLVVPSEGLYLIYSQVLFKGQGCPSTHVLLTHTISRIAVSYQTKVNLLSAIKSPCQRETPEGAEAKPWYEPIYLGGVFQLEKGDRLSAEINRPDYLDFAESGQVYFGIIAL

[25] = biological target: T5, Nucleotide-binding oligomerization domain-containing protein 1 (Homo sapiens, UniProt Q9Y239); experiment: NOD1 signaling inhibitors, SAR follow-up, revised (AID 2333); type: functional
T5 sequence (Q9Y239 whole entry): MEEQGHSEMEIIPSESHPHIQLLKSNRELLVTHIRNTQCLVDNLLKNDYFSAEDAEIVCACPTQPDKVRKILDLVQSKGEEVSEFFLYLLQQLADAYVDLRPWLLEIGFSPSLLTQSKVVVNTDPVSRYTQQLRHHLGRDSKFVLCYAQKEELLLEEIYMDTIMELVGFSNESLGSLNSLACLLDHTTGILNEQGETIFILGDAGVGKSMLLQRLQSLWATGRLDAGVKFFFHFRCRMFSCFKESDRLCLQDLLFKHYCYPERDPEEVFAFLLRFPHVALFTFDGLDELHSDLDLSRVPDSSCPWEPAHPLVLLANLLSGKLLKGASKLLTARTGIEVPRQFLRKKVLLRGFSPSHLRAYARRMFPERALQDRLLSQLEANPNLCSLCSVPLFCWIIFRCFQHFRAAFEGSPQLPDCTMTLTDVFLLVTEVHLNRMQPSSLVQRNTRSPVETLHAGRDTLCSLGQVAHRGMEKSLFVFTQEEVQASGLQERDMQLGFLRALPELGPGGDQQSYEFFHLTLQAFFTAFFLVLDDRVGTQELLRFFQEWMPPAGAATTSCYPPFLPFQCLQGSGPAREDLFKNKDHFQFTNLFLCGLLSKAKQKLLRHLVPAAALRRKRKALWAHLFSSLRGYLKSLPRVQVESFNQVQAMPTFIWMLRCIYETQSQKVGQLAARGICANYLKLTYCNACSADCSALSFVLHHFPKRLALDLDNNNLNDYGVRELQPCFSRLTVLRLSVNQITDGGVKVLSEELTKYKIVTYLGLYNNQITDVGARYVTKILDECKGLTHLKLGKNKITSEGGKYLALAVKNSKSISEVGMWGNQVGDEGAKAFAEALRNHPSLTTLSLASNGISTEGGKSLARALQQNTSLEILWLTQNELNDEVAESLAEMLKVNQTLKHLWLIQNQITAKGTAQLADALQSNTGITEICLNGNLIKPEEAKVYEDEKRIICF

[26] = test system: HEK293; experiment: cells; conditions: Homo sapiens
[27] = biological target: T6, Voltage-gated N-type calcium channel alpha-1B subunit/Amyloid beta A4 precursor protein-binding family A member 1 (Homo sapiens, UniProt Q00975+Q02410); type: protein assay
[28] = biological target: T6, Voltage-gated N-type calcium channel alpha-1B subunit/Amyloid beta A4 precursor protein-binding family A member 1; type: protein assay; remark: listed apart in the source
[29] = biological target: T7, Carboxy-terminal domain RNA polymerase II polypeptide A small phosphatase 1 (Homo sapiens, UniProt Q9GZU7); experiment: inhibitors of CTDSP1, concentration-response testing, biochemical assay, absorbance-based, actives from ultra-high-throughput screening (AID 540297); type: functional
T7 sequence (Q9GZU7 whole entry): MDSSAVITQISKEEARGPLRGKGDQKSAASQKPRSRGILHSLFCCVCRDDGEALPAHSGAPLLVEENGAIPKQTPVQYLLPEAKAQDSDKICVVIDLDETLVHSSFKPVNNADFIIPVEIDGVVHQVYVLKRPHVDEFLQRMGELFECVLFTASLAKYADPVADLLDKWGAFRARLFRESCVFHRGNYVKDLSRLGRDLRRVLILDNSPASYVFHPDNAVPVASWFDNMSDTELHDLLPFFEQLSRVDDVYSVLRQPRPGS

[30] = biological target: 26S proteasome non-ATPase regulatory subunit 14 (Homo sapiens, UniProt O00487); experiment: inhibition of proteasome subunit RPN11 – biochemical, fluorescence polarization, uHTS hits, confirmation (AID 602368); type: functional
[31] = biological target: 72 kDa type IV collagenase (Homo sapiens, UniProt P08253); experiment: Dose Response validation of uHTS RPN11 inhibitor hits using a MMP-2 Fluorescence assay.; type: functional
Sequence of 72 kDa type IV collagenase (P08253 whole entry): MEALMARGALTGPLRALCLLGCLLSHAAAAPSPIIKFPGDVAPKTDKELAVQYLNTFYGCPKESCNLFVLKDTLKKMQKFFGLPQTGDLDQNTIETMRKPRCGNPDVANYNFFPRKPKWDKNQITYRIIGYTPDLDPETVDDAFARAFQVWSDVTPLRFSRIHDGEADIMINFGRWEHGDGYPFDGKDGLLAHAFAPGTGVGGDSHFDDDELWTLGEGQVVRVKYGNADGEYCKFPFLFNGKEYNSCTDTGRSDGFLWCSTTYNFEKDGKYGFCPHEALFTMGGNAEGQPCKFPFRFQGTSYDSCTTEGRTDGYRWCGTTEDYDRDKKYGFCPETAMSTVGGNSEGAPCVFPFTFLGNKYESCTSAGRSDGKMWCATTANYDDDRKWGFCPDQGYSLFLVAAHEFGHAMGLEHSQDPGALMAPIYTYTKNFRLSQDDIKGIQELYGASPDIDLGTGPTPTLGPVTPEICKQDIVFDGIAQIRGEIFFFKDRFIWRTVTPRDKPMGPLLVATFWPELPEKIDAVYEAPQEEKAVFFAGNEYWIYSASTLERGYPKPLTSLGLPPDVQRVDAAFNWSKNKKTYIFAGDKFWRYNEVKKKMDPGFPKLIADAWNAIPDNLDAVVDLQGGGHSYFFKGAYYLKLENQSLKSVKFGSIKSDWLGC

[32] = biological target: Prothrombin (Bos taurus, UniProt P00735); experiment: thrombin inhibition, dose response, biochemical, fluorescence polarization, uHTS hits (AID 602369); type: functional
[33] = test system: INS1; experiment: beta cell apoptosis inhibitors, cytokine rescue, dose response, luminescence, retest (AID 449756); type: functional, cell-based; conditions: Rattus norvegicus;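 also: cell death triggered by IL-1 beta plus TNF-alpha plus IFN-gamma mixture; protective hits raise ATP signal compared with cytokine alone wells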
[34] = Shn3 3'UTR reporter inhibitors, dose response, cell-based, Clone20 osteoblasts, firefly luciferase, cherry-picked (AID 624132); type: functional;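 also: firefly luciferase luminescence from reporter carrying the Shn3 3'UTR in osteoblasts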
[35] = HepG2 cell cytotoxicity, dose response, cytotoxicity control for Shn3 inhibitor project, CellTiter-Glo, cherry-picked (AID 624134); type: functional, cell-based
[36] = control 3'UTR Renilla luciferase suppression, dose response, counter-screen for Shn3 inhibitor project, cell-based, Clone20-Shn3RL, cherry-picked (AID 624133); type: functional

Cn1ncc(Cl)c1C(=O)N1CCN(C(=O)c2ccco2)CC1
IC50 [1]: > 100 µM (inactive)
IC50 [2]: > 100 µM (not active)

Cc1ccccc1OCc1nc2c3cnn(C)c3ncn2n1
IC50 [3]: > 100 µM (not active)
IC50 [4]: > 100 µM (inactive)
IC50 [5]: > 100 µM (inactive)

COc1cccc(-c2cc(=O)c3cc(NC(=O)c4ccccc4)ccc3[nH]2)c1
IC50 [6]: > 80 µM (inactive)

O=C(O)c1ccc2c(c1)C1C(Cl)C(Sc3ccccc3[N+](=O)[O-])CC1C(c1cccc([N+](=O)[O-])c1)N2 (stereo not given)
IC50 [7]: 2.26 µM (active)
IC50 [8]: 23.6 µM (active)

c1ccc2c(-c3ccc(OCCN4CCCCC4)cc3)c(-c3ccsc3)sc2c1
AC50 [9]: 1.27 µM (active)
IC50 [10]: > 20 µM (inactive)
EC50 [11]: > 69.8 µM (inactive)

NS(=O)(=O)c1ccc(NC(=O)N2CCN(Cc3cccnc3)CC2)cc1
IC50 [12]: > 100 µM (inactive)

CN(C(=O)C1CCN(C(=O)c2cccs2)CC1)c1ccccc1
IC50 [13]: > 100 µM (inactive)
IC50 [14]: > 100 µM (inactive)

c1ccc(-n2cnnc2SCc2cn3cccnc3n2)cc1
AC50 [15]: 9.66 µM (active)
AC50 [16]: 30.1 µM (active)
AC50 [17]: 19.4 µM (active)

CC1CCc2c(sc(NC(=O)/C=C/c3cccs3)c2C(=O)O)C1 (stereo not given)
EC50 [18]: 6.14 µM (active)
IC50 [19]: > 20 µM (inactive)
IC50 [20]: > 20 µM (inactive)
EC50 [21]: > 20 µM (inactive)
IC50 [22]: 16.7 µM (inactive)
IC50 [23]: > 20 µM (inactive)
IC50 [24]: 9.63 µM (active)
IC50 [25]: 1.55 µM (active)
IC50 [26]: > 20 µM (inactive)

NS(=O)(=O)c1ccc(NC(=O)c2ccc(-c3ccccc3)cc2)cc1
IC50 [7]: 13.8 µM (active)
IC50 [27]: 4.83 µM (active)
IC50 [28]: > 50 µM (inactive)
IC50 [29]: 4.56 µM (active)
IC50 [30]: 8.12 µM (active)
IC50 [31]: > 100 µM (inactive)
IC50 [32]: 51.4 µM (active)

O=C(NCCCN1CCOCC1)c1ccc(Br)cc1Br
IC50 [1]: > 100 µM (inactive)
IC50 [2]: > 100 µM (not active)

CCC(=O)N1c2ccc(S(=O)(=O)N3CCN(c4ccc([N+](=O)[O-])cc4)CC3)cc2CC1C (stereo not given)
EC50 [18]: 1.67 µM (active)
IC50 [19]: 3.16 µM (active)
IC50 [20]: > 20 µM (inactive)
IC50 [22]: 4.46 µM (active)
IC50 [24]: 4.09 µM (active) and 4.88 µM (active)
IC50 [25]: 2.24 µM (active) and 1.87 µM (active)
IC50 [6]: > 80 µM (inactive)
AC50 [33]: 4.98 µM (active)
AC50 [34]: 1.93 µM (active)
AC50 [35]: 1.52 µM (active)
AC50 [36]: 9.71 µM (active)
IC50 [26]: > 20 µM (inactive)

O=C(Nc1ccc(F)cc1)C1CCCN1C(=O)Oc1ccccc1 (stereo not given)
IC50 [13]: > 100 µM (inactive)
IC50 [14]: > 100 µM (inactive)

NS(=O)(=O)c1ccc(NC(=S)Nc2ccccc2)cc1
IC50 [12]: 25 µM (active)
